Non-standard residues stand in square brackets, D forms with d. Residues, ends and D or L forms follow the SMILES beside them.

Data set [1] relates to S. aureus (MRSA) ATCC 33591. In kind it is cell-based, Staphylococcus aureus. The note with it: for MRSA MIC / S. aureus (MRSA) MIC: ATCC 33591; for MRSA (in vitro activity): Table 9, media a: anti-microbial media-3 (AM-3). The essentials: (§1)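 Overnight bacterial cultures, diluted 4000 times to roughly 2.5×10^5 cfu/ml, are added to 2-fold peptide dilution series. Peptide series span approximately 400-2 μg/ml as prepared in DMSO/aqueous sucrose, before mixing with inoculum. Testing follows NCCLS M7-A4 broth dilution, chiefly the microdilution format.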

In data set [2] the test system is murine red blood cells. Kind of data set: Red blood cell hemolysis. In kind it is cell-based, mouse. To be noted: for Hemolysis HD50: red cells of murine. The procedure, abridged:
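Hemolysis read as A560 of supernatant, scaled between saline (0%) and 1% Triton X-100 (100%) controls; peptides were serially diluted onto 5% murine red cells in saline plus 10% FBS and incubated 30 min at 37° C.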

Data set [3] has as its system E. coli JM109(DE3). In kind it is cell-based, Escherichia coli. The note with it: JM109. The protocol:
(§2) The antimicrobial activity of the peptides was determined using a broth dilution assay essentially as descried in the guidelines of the National Committee for […] (NCCLS) [National Committee for Clinical Laboratory Standards. Methods for dilution antimicrobial susceptibility tests for bacteria that grow aerobically. Fourth edition. Approved Standard (1997). Document M7-A4. […] The microdilution method has the advantages of requiring less amount of peptide for each assay and the possibility of multiple simultaneous inoculations and was used in most studies. Several of the strains of bacteria tested are further described in Table 3.
(§3) Preparation of peptide solutions. Stock peptide solutions were prepared in 5% DMSO in aq. sucrose (9%). Determination of peptide concentrations was done by quantitative HPLC analysis using known concentrations of internal standards and/or by measuring UV absorption of tryptophane-containing peptide solutions in H2O (λ=280 εTrp: 5690). Serial 2-fold dilutions were made in the above DMSO/aq. sucrose (9%) mixture with concentrations ranging approximately 400-2 μg/ml and aliquots were dispensed in test tubes (100 μl) for the macrodilution test or in microtiter plates (20 μl) for the microdilution assays.
(§4) Inoculum preparation. Overnight cultures of different microorganisms grown in suitable media were diluted 4000 times to an approximate inoculum size of 2.5×10^5 cfu/ml.
(§5) Macrodilution method. Macrodilution methods were performed using procedures similar to those described in the National Committee for Clinical Laboratory Standards. Methods for dilution antimicrobial susceptibility tests for bacteria that grow aerobically. Fourth edition. Approved Standard (1997). Document M7-A4. (NCCLS,Villanova, Pa., 1997). Two ml aliquots of the above inoculum were dispensed to test tubes containing different peptide solutions.
(§6) Microdilution method. Microdilution methods were performed using procedures similar to those described in the National Committee for Clinical Laboratory Standards. Methods for dilution antimicrobial susceptibility tests for bacteria that grow aerobically. Fourth edition. Approved Standard (1997). Document M7-A4.

The subject of data set [4] is Bacillus cereus ATCC 11778. It is filed as cell-based. The method, then:
as §2, §3, §4, §5, §6

For data set [5], the system named is Streptococcus pneumoniae (ATCC 6301). In kind it is cell-based. The protocol: as §2, §3, §4, §5, §6
The test system of data set [6] is vancomycin-resistant Enterococus faecalis (VRE)(ATCC 51575). It is filed as cell-based, Enterococcus faecalis. More on the design: key to VRE (in vitro activity): peptide concentration in μg/ml (broth dilution assay). The note with it: for VRE MIC: ATCC 51575; for VRE (in vitro activity): Table 9, media a: AM-3. The procedure, abridged: as §1

In data set [1], `CC(C)C[C@@H]1NC(=O)[C@@H](Cc2c[nH]c3ccccc23)NC(=O)[C@H](CCCNC(=N)N)NC(=O)[C@@H](CCCNC(=N)N)NC(=O)[C@H](CCCNC(=N)N)NC(=O)[C@@H](Cc2c[nH]c3ccccc23)NC(=O)[C@H](CC(C)C)NC(=O)[C@@H](Cc2c[nH]c3ccccc23)NC1=O` [SEQ ID NO:133, [RRRWLWLW]] (cyclo(R[dR]R[dW]L[dW]L[dW])) yielded an MRSA MIC of 10 µg/mL. Moreover, the Hemolysis HD50 in data set [2] amounted to 35 µg/mL. The E. coli MIC in data set [3] was determined as 35 µg/mL. The compound further registered a B. cerius MIC in data set [4] of 10 µg/mL. Besides, in data set [5], the S. pneum. MIC amounted to 5 µg/mL.

For the compound `CC(C)C[C@H]1NC(=O)[C@H](Cc2c[nH]c3ccccc23)NC(=O)[C@@H](CCCNC(=N)N)NC(=O)[C@H](CCCNC(=N)N)NC(=O)[C@@H](CC(C)C)NC(=O)[C@H](Cc2c[nH]c3ccccc23)NC1=O` [SEQ ID NO:115, [RRWLWL]] (cyclo(R[dR]W[dL]W[dL])), in data set [1], the MRSA MIC came to 40 µg/mL and the “MRSA (in vitro activity)” value was 40. For the same compound, in data set [2], the “RBC Hemolysis (HD50)” value is on record as 90 and the Hemolysis HD50 is 90 µg/mL. Moreover, the E. coli MIC in data set [3] stood at 5 µg/mL. Moreover, in data set [6], the VRE MIC stood at 100 µg/mL and the “VRE (in vitro activity)” value was found to be 100. The compound also yielded a B. cerius MIC in data set [4] of 24 µg/mL. Besides, the S. pneum. MIC in data set [5] was found to be 12 µg/mL.

`CC(C)C[C@H]1NC(=O)[C@H](Cc2c[nH]c3ccccc23)NC(=O)[C@@H](Cc2c[nH]cn2)NC(=O)[C@H](CCCCN)NC(=O)[C@@H](CCC(=O)O)NC(=O)[C@H](Cc2c[nH]c3ccccc23)NC(=O)[C@@H](CC(C)C)NC(=O)[C@H](Cc2c[nH]c3ccccc23)NC1=O` [SEQ ID NO:16, cyclo-(D-Glu-Lys-D-His-Trp-D-Leu-Trp-D-Leu-Trp)] (cyclo(K[dH]W[dL]W[dL]W[dE])): in data set [1], the MRSA MIC amounted to 100 µg/mL, the “S. aureus (MRSA) MIC” value is 100 µg/mL and the “MRSA (in vitro activity)” value turned out to be 100. In addition, the “RBC Hemolysis (HD50)” value in data set [2] is listed as greater than 100. For the same compound, the “E. coli MIC” value in data set [3] stood at 100 µg/mL. In data set [6], the VRE MIC was 100 µg/mL and the “VRE (in vitro activity)” value was determined as 100. Besides, the B. cerius MIC in data set [4] was 85 µg/mL. In addition, in data set [5], the S. pneum. MIC is 50 µg/mL.

As to `CC(C)C[C@H]1NC(=O)[C@H](Cc2c[nH]c3ccccc23)NC(=O)[C@@H](Cc2c[nH]cn2)NC(=O)[C@H](CCCCN)NC(=O)[C@@H](CO)NC(=O)[C@H](Cc2c[nH]c3ccccc23)NC(=O)[C@@H](CC(C)C)NC(=O)[C@H](Cc2c[nH]c3ccccc23)NC1=O` [SEQ ID NO:14, cyclo-(D-Ser-Lys-D-His-Trp-D-Leu-Trp-D-Leu-Trp)] (cyclo(K[dH]W[dL]W[dL]W[dS])), in data set [1], the MRSA MIC came out at 15 µg/mL, the “S. aureus (MRSA) MIC” value turned out to be 15 µg/mL and the “MRSA (in vitro activity)” value turned out to be 15. Besides, in data set [2], the “RBC Hemolysis (HD50)” value was 20. Moreover, the “E. coli MIC” value in data set [3] was determined as 100 µg/mL. Moreover, in data set [6], the VRE MIC was 30 µg/mL and the “VRE (in vitro activity)” value is 30. This compound gave a B. cerius MIC in data set [4] of 6 µg/mL.

Turning to `CC(C)C[C@H]1NC(=O)[C@H](Cc2c[nH]c3ccccc23)NC(=O)[C@@H](CCCNC(=N)N)NC(=O)[C@H](CCCNC(=N)N)NC(=O)[C@@H](CCCNC(=N)N)NC(=O)[C@H](Cc2c[nH]c3ccccc23)NC(=O)[C@@H](CC(C)C)NC(=O)[C@H](Cc2c[nH]c3ccccc23)NC1=O` [SEQ ID NO:20, RRRWLWLW] (cyclo([dR]R[dR]W[dL]W[dL]W)), the “S. aureus (MRSA) MIC” value in data set [1] was determined as 10 µg/mL. Further, the “Hemolysis HD50” value in data set [2] was 35 µg/mL. Also, the “E. coli MIC” value in data set [3] amounted to 50 µg/mL.

On to `CC(C)C[C@H]1NC(=O)[C@H](Cc2c[nH]c3ccccc23)NC(=O)[C@@H](CCCCN)NC(=O)[C@H](CCC(N)=O)NC(=O)[C@@H](CCCCN)NC(=O)[C@H](Cc2c[nH]c3ccccc23)NC(=O)[C@@H](CC(C)C)NC(=O)[C@H](Cc2c[nH]c3ccccc23)NC1=O` [SEQ ID NO:11, cyclo-[Gln-D-Lys-(Trp-D-Leu)2-Trp-D-Lys-]] (cyclo([dK]Q[dK]W[dL]W[dL]W)), for which, in data set [1], the MRSA MIC was 20 µg/mL and the “S. aureus (MRSA) MIC” value is 45 µg/mL. Besides, the “E. coli MIC” value in data set [3] came out at 100 µg/mL. Besides, the VRE MIC in data set [6] came out at 20 µg/mL. The B. cerius MIC in data set [4] is 7 µg/mL. Besides, in data set [5], the S. pneum. MIC is 8 µg/mL.
